Measured values from ChEMBL document CHEMBL1122237, “4,5,6,7-Tetrahydroisothiazolo[5,4-c]pyridin-3-ol and related analogues of THIP. Synthesis and biological activity” (J Med Chem, 1983).
Calls of active or inactive are those of the source. The calls are words filed in the database; no cut-off is given here.

Columns and labels:
[1] = target: T1, GABA-A receptor; anion channel (Homo sapiens) (UniProt P14867+P47870+P18507+P28472+P48169+Q99928+Q9UN88+P34903+O00591+O14764+Q8N1C3+P18505+P78334+P47869+P31644+Q16445); settings: Felis catus; Spinal cord; filed as agonist
[2] = target: GABA-A receptor; anion channel
Description: In vitro affinity for GABA binding sites on purified synaptic membranes from rat brain.

Felis catus [3] = species: Felis catus; assay: In vitro effect of Gamma-aminobutyric acid enhancement on single neurons of cat spinal cord; assay type: functional
GABA transporter [4] = target: T2, GABA transporter (Rattus norvegicus, UniProt P31647+P23978+P31646+P48056); assay type: functional, subcellular, Brain
Description: In vitro effect on GABA uptake in a crude preparation of synaptosomes from rat brain.

[5] = I/U ratio for neutral amino acids.; assay type: functional
Felis catus [6] = species: Felis catus; assay: In vitro effect of glycine antagonism on single neurons of cat spinal cord; Glycine antagonists are indicated by Delta symbol.; assay type: functional, organism-based; settings: filed as antagonist
Felis catus [7] = species: Felis catus; assay: In vitro effect of Gamma-aminobutyric acid enhancement on single neurons of cat spinal cord (ND = no data, No significant activity); assay type: functional
[8] = target: T1, GABA-A receptor; anion channel (Homo sapiens); assay: In vitro effect on Gamma-aminobutyric acid agonism on single neurons of cat spinal cord (- is less active than GABA); assay type: functional, tissue-based; settings: Felis catus, filed as partial agonist, target entry is the homologue from another species
[9] = target: Gamma-aminobutyric acid receptor subunit gamma-1 (Rattus norvegicus, UniProt P23574); assay: In vitro affinity for GABA binding sites on purified synaptic membranes from rat brain
Sequence of Gamma-aminobutyric acid receptor subunit gamma-1 (P23574 whole entry): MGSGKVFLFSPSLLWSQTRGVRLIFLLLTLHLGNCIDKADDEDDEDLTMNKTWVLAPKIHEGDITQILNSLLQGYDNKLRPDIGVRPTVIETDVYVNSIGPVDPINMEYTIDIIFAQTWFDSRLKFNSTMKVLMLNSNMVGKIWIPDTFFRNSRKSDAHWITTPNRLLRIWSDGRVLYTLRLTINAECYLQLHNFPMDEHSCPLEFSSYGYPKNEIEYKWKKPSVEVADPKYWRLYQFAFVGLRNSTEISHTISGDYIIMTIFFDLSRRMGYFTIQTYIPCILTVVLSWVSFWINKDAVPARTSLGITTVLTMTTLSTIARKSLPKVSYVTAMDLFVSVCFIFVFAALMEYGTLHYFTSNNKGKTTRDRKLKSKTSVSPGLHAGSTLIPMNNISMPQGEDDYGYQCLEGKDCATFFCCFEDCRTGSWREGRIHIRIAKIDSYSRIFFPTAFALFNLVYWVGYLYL

[10] = I/U ratio for neutral amino acids; assay type: functional
Felis catus [11] = species: Felis catus; assay: In vitro effect of GABA enhancement on single neurons in the cat spinal cord;; assay type: functional, organism-based
GABA transporter [12] = target: T2, GABA transporter; assay: In vitro effect on GABA uptake in a crude preparation of synaptosomes from rat brain; assay type: functional, subcellular
Felis catus [13] = species: Felis catus; assay: In vitro effect of glycine antagonism on single neurons in the cat spinal cord; Glycine antagonists are indicated by the Delta symbol.; assay type: functional, organism-based; settings: filed as antagonist
Felis catus [14] = species: Felis catus; assay: In vitro effect of Gamma-aminobutyric acid enhancement on single neurons of cat spinal cord (No significant activity); assay type: functional

Description for physchem: Dissociation constant (pKa)

Compound | IC50 [2] [µM] | pKa (physchem) | IC50 (GABA transporter [4]) [µM] | Ratio [5] | also measured
NCCCC(=O)O |  |  |  |  | GABA agonism [1]: Agonist
COC(=O)N1CCc2c(O)noc2C1 |  | 5.3 |  |  | 
Oc1nsc2c1CCNC2 | 42 | 6.1 | 220 | 16 | GABA agonism [8]: Partial agonist
Oc1noc2c1CNCC2 |  |  |  |  | IC50 [9]: 72 µM; Ratio [10]: 2500; GABA enhancement (Felis catus [11]): Active; IC50 (GABA transporter [12]): 160 µM
COc1noc2c1CCNC2 |  | 7.1 |  |  | 
O=C(O)N1CCc2onc(O)c2CC1 |  | 5.6 |  |  | 
COC(=O)N1CCc2snc(O)c2CC1 |  | 7.6 |  |  | 

Second part, led by results:

IC50 [2] [µM] | pKa (physchem) | IC50 (GABA transporter [4]) [µM] | Compound | Ratio [5] | also measured
> 100 | 6.1 | 230 | Oc1nsc2c1CNCC2 | 63 | GABA enhancement (Felis catus [3]): Active
31 |  | 400 | Oc1nsc2c1CCNCC2 | 200 | Glycine antagonism (Felis catus [6]): Antagonist; GABA enhancement (Felis catus [7]): inactive
 | 7.7 |  | COc1noc2c1CNCC2 |  | 
 | 7.3 |  | COC(=O)N1CCc2c(O)nsc2C1 |  | 
15 | 4.8 | > 500 | Oc1noc2c1CCNCC2 | 4000 | Glycine antagonism (Felis catus [13]): Antagonist; GABA enhancement (Felis catus [14]): inactive
 | 7.4 |  | COC(=O)N1CCc2snc(O)c2C1 |  | 
